This data set is described as follows: intrinsic solubility (aqueous medium/lower pH). Format: physicochemical.

Regarding `Cc1cccc(Nc2ccccc2C(=O)O)c1C` [mefanamic acid], the intrinsic solubility came out at 0.0423 µg/mL.
